Source: the supplement of paper PMC10307832

How the values were obtained:
Test in all cases: relative viability (nuclei count vs DMSO), 5 days (fraction); higher = more cells survive
BX 795 + Linsitinib = compound: O=C(NCCCNc1nc(Nc2cccc(NC(=O)N3CCCC3)c2)ncc1I)c1cccs1 [BX 795] + C[C@]1(O)C[C@@H](c2nc(-c3ccc4ccc(-c5ccccc5)nc4c3)c3c(N)nccn32)C1 [Linsitinib] (partner 1 µM)
Outline: (§1)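 Nuclei were stained with Hoechst during a one-step fixation (final 0.05% Triton X-100, 1% formaldehyde, 1 ug/ml Hoechst) carried out 5 days after dosing, then counted on 4× images. The cells, lung cancer lines in 1536-well plates, had been dosed by pin tool the day after seeding with one drug alone or a fixed anchor-drug dose plus five library-drug doses (not always all listed) in √10 steps. Relative viability is the nuclei count in treated wells divided by that in vehicle wells, and each value is the median of duplicate plates.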

BX 795 + Foretinib = compound: O=C(NCCCNc1nc(Nc2cccc(NC(=O)N3CCCC3)c2)ncc1I)c1cccs1 [BX 795] + COc1cc2c(Oc3ccc(NC(=O)C4(C(=O)Nc5ccc(F)cc5)CC4)cc3F)ccnc2cc1OCCCN1CCOCC1 [Foretinib] (partner 0.25 µM)
Outline: as §1

BX 795 + Decitabine = compound: O=C(NCCCNc1nc(Nc2cccc(NC(=O)N3CCCC3)c2)ncc1I)c1cccs1 [BX 795] + Nc1ncn([C@H]2C[C@H](O)[C@@H](CO)O2)c(=O)n1 [Decitabine] (partner 2 µM)
Outline: as §1

BX 795 + Olaparib = compound: O=C(NCCCNc1nc(Nc2cccc(NC(=O)N3CCCC3)c2)ncc1I)c1cccs1 [BX 795] + O=C(c1cc(Cc2n[nH]c(=O)c3ccccc23)ccc1F)N1CCN(C(=O)C2CC2)CC1 [Olaparib] (partner 8 µM)
Outline: as §1

BX 795 + Crizotinib = compound: O=C(NCCCNc1nc(Nc2cccc(NC(=O)N3CCCC3)c2)ncc1I)c1cccs1 [BX 795] + C[C@@H](Oc1cc(-c2cnn(C3CCNCC3)c2)cnc1N)c1c(Cl)ccc(F)c1Cl [Crizotinib] (partner 1 µM)
Outline: as §1

BX 795 + Pictilisib = compound: O=C(NCCCNc1nc(Nc2cccc(NC(=O)N3CCCC3)c2)ncc1I)c1cccs1 [BX 795] + CS(=O)(=O)N1CCN(Cc2cc3nc(-c4cccc5[nH]ncc45)nc(N4CCOCC4)c3s2)CC1 [Pictilisib] (partner 1 µM)
Outline: as §1

BX 795 + Lapatinib = compound: O=C(NCCCNc1nc(Nc2cccc(NC(=O)N3CCCC3)c2)ncc1I)c1cccs1 [BX 795] + CS(=O)(=O)CCNCc1ccc(-c2ccc3ncnc(Nc4ccc(OCc5cccc(F)c5)c(Cl)c4)c3c2)o1 [Lapatinib] (partner 2 µM)
Outline: as §1

BX 795 + Alpelisib = compound: O=C(NCCCNc1nc(Nc2cccc(NC(=O)N3CCCC3)c2)ncc1I)c1cccs1 [BX 795] + Cc1nc(NC(=O)N2CCC[C@H]2C(N)=O)sc1-c1ccnc(C(C)(C)C(F)(F)F)c1 [Alpelisib] (partner 2 µM)
Outline: as §1

BX 795 + Phenformin = compound: O=C(NCCCNc1nc(Nc2cccc(NC(=O)N3CCCC3)c2)ncc1I)c1cccs1 [BX 795] + N=C(N)NC(=N)NCCc1ccccc1 [Phenformin] (partner 250 µM)
Outline: as §1

BX 795 + Navitoclax = compound: O=C(NCCCNc1nc(Nc2cccc(NC(=O)N3CCCC3)c2)ncc1I)c1cccs1 [BX 795] + CC1(C)CCC(c2ccc(Cl)cc2)=C(CN2CCN(c3ccc(C(=O)NS(=O)(=O)c4ccc(N[C@H](CCN5CCOCC5)CSc5ccccc5)c(S(=O)(=O)C(F)(F)F)c4)cc3)CC2)C1 [Navitoclax] (partner 0.5 µM)
Outline: as §1

BX 795 = compound: O=C(NCCCNc1nc(Nc2cccc(NC(=O)N3CCCC3)c2)ncc1I)c1cccs1 [BX 795]
Outline: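 Viability was read as treated-well nuclei divided by vehicle-well nuclei, using the median across plates. Lung cancer cell lines in 1536-well plates were kept overnight at 37 °C, pinned with five √10-spaced library-drug doses, and after 5 days were Hoechst-stained, imaged at 4× and counted in MetaXpress. Plates passed only with control CV below 25% and at least one doubling.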

BX 795 + Bortezomib = compound: O=C(NCCCNc1nc(Nc2cccc(NC(=O)N3CCCC3)c2)ncc1I)c1cccs1 [BX 795] + CC(C)C[C@H](NC(=O)[C@H](Cc1ccccc1)NC(=O)c1cnccn1)B(O)O [Bortezomib] (partner 0.002 µM)
Outline: as §1

## A549
BX 795 + Linsitinib; first compound 0.04 µM
  relative viability: 0.579
BX 795 + Linsitinib; first compound 0.1265 µM
  relative viability: 0.646
BX 795 + Linsitinib; first compound 0.4 µM
  relative viability: 0.574
BX 795 + Linsitinib; first compound 1.265 µM
  relative viability: 0.552
BX 795 + Foretinib; first compound 0.04 µM
  relative viability: 0.911
BX 795 + Foretinib; first compound 0.1265 µM
  relative viability: 1.02
BX 795 + Foretinib; first compound 0.4 µM
  relative viability: 1.03
BX 795 + Foretinib; first compound 1.265 µM
  relative viability: 0.647
BX 795 + Decitabine; first compound 0.04 µM
  relative viability: 0.332
BX 795 + Decitabine; first compound 0.1265 µM
  relative viability: 0.289
BX 795 + Decitabine; first compound 0.4 µM
  relative viability: 0.329
BX 795 + Decitabine; first compound 1.265 µM
  relative viability: 0.282
BX 795 + Olaparib; first compound 0.04 µM
  relative viability: 0.495
BX 795 + Olaparib; first compound 0.1265 µM
  relative viability: 0.379
BX 795 + Olaparib; first compound 0.4 µM
  relative viability: 0.279
BX 795 + Olaparib; first compound 1.265 µM
  relative viability: 0.219
BX 795 + Crizotinib; first compound 0.04 µM
  relative viability: 0.725
BX 795 + Crizotinib; first compound 0.1265 µM
  relative viability: 0.71
BX 795 + Crizotinib; first compound 0.4 µM
  relative viability: 0.777
BX 795 + Crizotinib; first compound 1.265 µM
  relative viability: 0.128
BX 795 + Pictilisib; first compound 0.04 µM
  relative viability: 0.51
BX 795 + Pictilisib; first compound 0.1265 µM
  relative viability: 0.47
BX 795 + Pictilisib; first compound 0.4 µM
  relative viability: 0.449
BX 795 + Pictilisib; first compound 1.265 µM
  relative viability: 0.134
BX 795 + Lapatinib; first compound 0.04 µM
  relative viability: 0.999
BX 795 + Lapatinib; first compound 0.1265 µM
  relative viability: 0.88
BX 795 + Lapatinib; first compound 0.4 µM
  relative viability: 1
BX 795 + Lapatinib; first compound 1.265 µM
  relative viability: 0.146
BX 795 + Alpelisib; first compound 0.04 µM
  relative viability: 0.761
BX 795 + Alpelisib; first compound 0.1265 µM
  relative viability: 0.731
BX 795 + Alpelisib; first compound 0.4 µM
  relative viability: 0.6
BX 795 + Alpelisib; first compound 1.265 µM
  relative viability: 0.267
BX 795 + Phenformin; first compound 0.04 µM
  relative viability: 0.23
BX 795 + Phenformin; first compound 0.1265 µM
  relative viability: 0.15
BX 795 + Phenformin; first compound 0.4 µM
  relative viability: 0.271
BX 795 + Phenformin; first compound 1.265 µM
  relative viability: 0.112
BX 795 + Navitoclax; first compound 0.04 µM
  relative viability: 1.19
BX 795 + Navitoclax; first compound 0.1265 µM
  relative viability: 1.24
BX 795 + Navitoclax; first compound 0.4 µM
  relative viability: 1.47
BX 795 + Navitoclax; first compound 1.265 µM
  relative viability: 0.739
BX 795; 0.04 µM
  relative viability: 1.01
BX 795; 0.1265 µM
  relative viability: 1.08
BX 795; 0.4 µM
  relative viability: 0.97
BX 795; 1.265 µM
  relative viability: 0.671

## Calu-6
BX 795 + Linsitinib; first compound 0.04 µM
  relative viability: 0.883
BX 795 + Linsitinib; first compound 0.1265 µM
  relative viability: 1.06
BX 795 + Linsitinib; first compound 0.4 µM
  relative viability: 0.533
BX 795 + Linsitinib; first compound 1.265 µM
  relative viability: 0.726
BX 795 + Bortezomib; first compound 0.04 µM
  relative viability: 1.04
BX 795 + Bortezomib; first compound 0.1265 µM
  relative viability: 1.02
BX 795 + Bortezomib; first compound 0.4 µM
  relative viability: 0.831
BX 795 + Bortezomib; first compound 1.265 µM
  relative viability: 0.525
BX 795 + Foretinib; first compound 0.04 µM
  relative viability: 0.91
BX 795 + Foretinib; first compound 0.1265 µM
  relative viability: 0.84
BX 795 + Foretinib; first compound 0.4 µM
  relative viability: 0.557
BX 795 + Foretinib; first compound 1.265 µM
  relative viability: 0.555
BX 795 + Olaparib; first compound 0.04 µM
  relative viability: 0.559
BX 795 + Olaparib; first compound 0.1265 µM
  relative viability: 0.591
BX 795 + Olaparib; first compound 0.4 µM
  relative viability: 0.283
BX 795 + Olaparib; first compound 1.265 µM
  relative viability: 0.336
BX 795 + Crizotinib; first compound 0.04 µM
  relative viability: 0.728
BX 795 + Crizotinib; first compound 0.1265 µM
  relative viability: 0.777
BX 795 + Crizotinib; first compound 0.4 µM
  relative viability: 0.556
BX 795 + Crizotinib; first compound 1.265 µM
  relative viability: 0.249
BX 795 + Pictilisib; first compound 0.04 µM
  relative viability: 0.896
BX 795 + Pictilisib; first compound 0.1265 µM
  relative viability: 0.966
BX 795 + Pictilisib; first compound 0.4 µM
  relative viability: 0.518
BX 795 + Pictilisib; first compound 1.265 µM
  relative viability: 0.505
BX 795 + Lapatinib; first compound 0.04 µM
  relative viability: 1.02
BX 795 + Lapatinib; first compound 0.1265 µM
  relative viability: 1.1
BX 795 + Lapatinib; first compound 0.4 µM
  relative viability: 0.843
BX 795 + Lapatinib; first compound 1.265 µM
  relative viability: 0.552
BX 795 + Alpelisib; first compound 0.04 µM
  relative viability: 1.1
BX 795 + Alpelisib; first compound 0.1265 µM
  relative viability: 0.919
BX 795 + Alpelisib; first compound 0.4 µM
  relative viability: 0.585
BX 795 + Alpelisib; first compound 1.265 µM
  relative viability: 0.509
BX 795 + Navitoclax; first compound 0.04 µM
  relative viability: 0.825
BX 795 + Navitoclax; first compound 0.1265 µM
  relative viability: 0.874
BX 795 + Navitoclax; first compound 0.4 µM
  relative viability: 0.727
BX 795 + Navitoclax; first compound 1.265 µM
  relative viability: 0.389
BX 795; 0.04 µM
  relative viability: 0.98
BX 795; 0.1265 µM
  relative viability: 1
BX 795; 0.4 µM
  relative viability: 0.716
BX 795; 1.265 µM
  relative viability: 0.665

## EBC-1
BX 795 + Linsitinib; first compound 0.04 µM
  relative viability: 0.957
BX 795 + Linsitinib; first compound 0.1265 µM
  relative viability: 0.864
BX 795 + Linsitinib; first compound 0.4 µM
  relative viability: 0.85
BX 795 + Linsitinib; first compound 1.265 µM
  relative viability: 0.439
BX 795 + Bortezomib; first compound 0.04 µM
  relative viability: 0.571
BX 795 + Bortezomib; first compound 0.1265 µM
  relative viability: 0.458
BX 795 + Bortezomib; first compound 0.4 µM
  relative viability: 0.551
BX 795 + Bortezomib; first compound 1.265 µM
  relative viability: 0.269
BX 795 + Foretinib; first compound 0.04 µM
  relative viability: 0.104
BX 795 + Foretinib; first compound 0.1265 µM
  relative viability: 0.0912
BX 795 + Foretinib; first compound 0.4 µM
  relative viability: 0.0982
BX 795 + Foretinib; first compound 1.265 µM
  relative viability: 0.0866
BX 795 + Olaparib; first compound 0.04 µM
  relative viability: 0.794
BX 795 + Olaparib; first compound 0.1265 µM
  relative viability: 0.707
BX 795 + Olaparib; first compound 0.4 µM
  relative viability: 0.765
BX 795 + Olaparib; first compound 1.265 µM
  relative viability: 0.355
BX 795 + Crizotinib; first compound 0.04 µM
  relative viability: 0.199
BX 795 + Crizotinib; first compound 0.1265 µM
  relative viability: 0.186
BX 795 + Crizotinib; first compound 0.4 µM
  relative viability: 0.184
BX 795 + Crizotinib; first compound 1.265 µM
  relative viability: 0.172
BX 795 + Pictilisib; first compound 0.04 µM
  relative viability: 0.419
BX 795 + Pictilisib; first compound 0.1265 µM
  relative viability: 0.351
BX 795 + Pictilisib; first compound 0.4 µM
  relative viability: 0.262
BX 795 + Pictilisib; first compound 1.265 µM
  relative viability: 0.157
BX 795 + Lapatinib; first compound 0.04 µM
  relative viability: 0.217
BX 795 + Lapatinib; first compound 0.1265 µM
  relative viability: 0.189
BX 795 + Lapatinib; first compound 0.4 µM
  relative viability: 0.231
BX 795 + Lapatinib; first compound 1.265 µM
  relative viability: 0.188
BX 795 + Alpelisib; first compound 0.04 µM
  relative viability: 0.874
BX 795 + Alpelisib; first compound 0.1265 µM
  relative viability: 0.763
BX 795 + Alpelisib; first compound 0.4 µM
  relative viability: 0.628
BX 795 + Alpelisib; first compound 1.265 µM
  relative viability: 0.34
BX 795 + Navitoclax; first compound 0.04 µM
  relative viability: 0.508
BX 795 + Navitoclax; first compound 0.1265 µM
  relative viability: 0.438
BX 795 + Navitoclax; first compound 0.4 µM
  relative viability: 0.401
BX 795 + Navitoclax; first compound 1.265 µM
  relative viability: 0.222
BX 795; 0.04 µM
  relative viability: 1.02
BX 795; 0.1265 µM
  relative viability: 1.01
BX 795; 0.4 µM
  relative viability: 0.931
BX 795; 1.265 µM
  relative viability: 0.543
